Here are results for 16 compounds from patent publication US20240317777A1, “NOVEL MACROCYCLIC AMINOPYRAZOLE COMPOUNDS AS CDK2 INHIBITORS” (Accutar Biotechnology Inc., priority 2023, published 2024).

Common to all, as to format: cell-based
Assay [1] relates to Phospho-Rb (Ser807/811) in OVCAR3 cells. The assay is described as follows: Phospho-Rb expression inhibition in OVCAR3 cells quantified by In Cell Western. Conditions: Homo sapiens, OVCAR-3, 24 hours, read-out: OVCAR-3 pRb IC50. The protocol: Phospho-Rb Expression Inhibition in OVCAR3 Cells Quantified by in Cell Western
OVCAR3 cells were obtained from American Type Culture Collection (ATCC, HTB-161). OVCAR3 cells were plated in 96-well plates (VWR #10062-900, or Corning #3904) in 90 uL culture medium at a density of 20,000 cells/well in the RPM11640 growth medium containing 10% FBS and 1% Penicillin Streptomycin, and then incubated at 37° C. overnight. The following day, the test compound was administered to the cells by using 1000× compound stock solution prepared in DMSO at various concentrations. 1000× compound stock solution was first diluted in culturing medium to 10x, then 10 uL compound medium was added to each well in the cell plates. After administration of the compound, the cells were then incubated at 37° C. for 24 hours. Upon completion, the cells were washed with PBS briefly. 150 uL/well of 4% formaldehyde was added and the plates were incubated at room temperature for 20 mins. The cells were washed with PBS briefly, and permeabilized with 150 uL/well of ice cold 100% methanol for 10 mins. The cells were washed with PBS briefly and blocked with 100 uL/well LI-COR blocking buffer for 1 hr at room temperature with gentle shaking. The cells were incubated overnight at 4° C. with 50 uL primary antibody rabbit anti-Phospho-Rb (Ser807/811) (1:500, Cell Signaling, #8516) and anti-Rb (1:200, Santa Cruz, sc-73598) diluted in Intercept Blocking Buffer (LI-COR, #927-60001) containing 0.1% Tween 20. The next day, the cells were washed with 200 uL PBS containing 0.1% Tween 20, 5×5 mins at room temperature with gentle shaking, and incubated with 50 uL secondary antibody, IRDye® 800CW Goat anti-Rabbit IgG (1:1000, LI-COR, #926-32211) and IRDye® 680RD Goat anti-Mouse IgG (1:1000, LI-COR, #926-68070), in LI-COR blocking buffer with 0.2% Tween 20 for 1 hr at room temperature with gentle shaking. The cells were washed with 200 uL PBS containing 0.1% Tween 20, 5×5 mins at room temperature with gentle shaking. The cells were washed with PBS for 5 mins. 100 uL fresh PBS was added to each well and the plates were imaged on a LI-COR Odyssey CLX plate reader.

Assay [2] concerns CCNE1-amplified OVCAR3 cells. The assay is described as follows: Cell growth inhibition of CCNE1-amplified OVCAR3 cells (CellTiter-Glo). Conditions: Homo sapiens, OVCAR-3, 144 h, 6 days. The protocol:
Cell Growth Inhibition of CCNE1-Amplified OVCAR3 Cells
(§1) OVCAR3 cells were seeded in 96-well plates at 2000 cells/well in 90 μl of RPM11640 growth medium containing 10% FBS and 1% Penicillin Streptomycin, and then incubated at 37° C. overnight. The following day, the test compound was administered to the cells by using 1000× compound stock solution prepared in DMSO at various concentrations. 1000× compound stock solution was first diluted in culturing medium to 10x, then 10 uL compound medium was added to each well in the cell plates. After administration of the compound, the cells were then incubated at 37° C. for 6 days. Upon completion, the plates were equilibrated at room temperature for approximately 10 minutes. 100 ul of CellTiter-Glo® Reagent (Promega) was added to each well. The plates were then incubated at room temperature for 10 minutes and luminescence was recorded by EnSpire plate reader (PerkinElmer).
On the technique in general: Cellular ATP, detected with luciferase, serves as a proxy for viable cell number.

In the next assay the test system is CCNE1-normal SKOV3 cells. The assay is described as follows: Cell growth inhibition of CCNE1-normal SKOV3 cells (CellTiter-Glo). Conditions: Homo sapiens, SK-OV-3, 144 h, 6 days. How it is done: Cell Growth Inhibition of CCNE1-Normal SKOV3 Cells
as §1, with “SKOV3 cells were obtained from American Type Culture Collection (ATCC, HTB-77). SKOV3” for “OVCAR3”, “1000” for “2000”

What is called IC50 is the point on the concentration scale where inhibition reaches its midpoint. As for `O=C1NCCCOC2(CC2)c2cc(ccn2)Nc2cc([nH]n2)[C@H]2CC[C@H](C2)O1` [Compound 26, (1'S,3′R,Z)-spiro[cyclopropane-1,5′-6,12-dioxa-3,10-diaza-4(4,2)-pyridina-2(3,5)-pyrazola-1(1,3)-cyclopentanacyclododecaphan]-11′-one], the IC50 in assay [1] lay within 10 to 50 nM; in assay [2] it was 10 to 50 nM; with CCNE1-normal SKOV3 cells, 250 to 1250 nM.
As for `O=C1NC2(CCCOc3cc(ccn3)Nc3cc([nH]n3)[C@H]3CC[C@H](C3)O1)CC2` [Compound 33, (1'S,3′R,Z)-spiro[cyclopropane-1 9′-5,12-dioxa-3,10-diaza-4(4,2)-pyridina-2(3,5)-pyrazola-1(1,3)-cyclopentanacyclododecaphan]-11′-one], the IC50 was 10 to 50 nM in assay [1], 50 to 250 nM in assay [2] and over 1250 nM in the assay on CCNE1-normal SKOV3 cells.
With `O=C1NC23CC(CCCc4cc(cc(C(F)F)n4)Nc4cc(n[nH]4)[C@H]4CC[C@H](C4)O1)(C2)C3` [Compound 98, (1^1S,1^3R,Z)-4^6-(difluoromethyl)-2^1H-11-oxa-3,9-diaza-4(4,2)-pyridina-2(3,5)-pyrazola-8(1,3)-bicyclo[1.1.1]pentana-1(1,3)-cyclopentanacycloundecaphan-10-one], the IC50 in assay [1] is at most 2 nM; in assay [2], at most 2 nM; with CCNE1-normal SKOV3 cells, 10 to 50 nM.
For the compound `C[C@H]1CCC(C)(C)NC(=O)O[C@@H]2CC[C@@H](C2)c2cc([nH]n2)Nc2ccnc(c2)O1` [Compound 113, (1^1S,1^3R,6S,Z)-6,9,9-trimethyl-2^1H-5,12-dioxa-3,10-diaza-4(4,2)-pyridina-2(3,5)-pyrazola-1(1,3)-cyclopentanacyclododecaphan-11-one], the half-maximal inhibitory concentration (IC50) is at most 2 nM in assay [1], 2 to 10 nM in assay [2] and 10 to 50 nM in the assay on CCNE1-normal SKOV3 cells.
Taken in the same sequence, the figures for `O=C1NC23CC(CCCc4cncc(c4)Nc4cc(n[nH]4)[C@H]4CC[C@H](C4)O1)(C2)C3` [Compound 118, (1^1S,1^3R,Z)-2^1H-11-oxa-3,9-diaza-4(3,5)-pyridina-2(3,5)-pyrazola-8(1,3)-bicyclo[1.1.1]pentana-1(1,3)-cyclopentanacycloundecaphan-10-one] were at most 2 nM, at most 2 nM and 10 to 50 nM.
In the same order, the values of `C[C@H]1CCC(C)(C)NC(=O)O[C@@H]2CC[C@@H](C2)c2cc([nH]n2)Nc2cncc(c2)O1` [Compound 124, (1^1S,1^3R,6S,Z)-6,9,9-trimethyl-2^1H-5,12-dioxa-3,10-diaza-4(3,5)-pyridina-2(3,5)-pyrazola-1(1,3)-cyclopentanacyclododecaphan-11-one] are at most 2 nM, 2 to 10 nM and 10 to 50 nM.
In the same order, the values of `C[C@@H]1/C=C/COc2cc(ccn2)Nc2cc(n[nH]2)[C@H]2CC[C@H](C2)OC(=O)N1` [Compound 138, (1^1S,1^3R,2^4Z,7E,9R)-9-methyl-2^1H-5,12-dioxa-3,10-diaza-4(4,2)-pyridina-2(3,5)-pyrazola-1(1,3)-cyclopentanacyclododecaphan-7-en-11-one] are 10 to 50 nM, 50 to 250 nM and over 1250 nM.
On to `O=C1NC2CC(CCc3cncc(c3)Nc3cc(n[nH]3)[C@H]3CC[C@H](C3)O1)C2` [Compound 141, (1^1S,1^3R,7^1R,7^3R,Z)-2^1H-10-oxa-3,8-diaza-4(3,5)-pyridina-2(3,5)-pyrazola-1(1,3)-cyclopentana-7(1,3)-cyclobutanacyclodecaphan-9-one], for which the IC50 in assay [1] is at most 2 nM; in assay [2], 2 to 10 nM; with CCNE1-normal SKOV3 cells it was 50 to 250 nM.
Take `O=C1NC2(CCCCc3cncc(c3)Nc3cc(n[nH]3)[C@H]3CC[C@H](C3)O1)CC2` [Compound 142, (1′S,3′R,Z)-spiro[cyclopropane-1,9′-12-oxa-3,10-diaza-4(3,5)-pyridina-2(3,5)-pyrazola-1(1,3)-cyclopentanacyclododecaphan]-11′-one]: the 50% inhibitory concentration (IC50) is 2 to 10 nM in assay [1], 10 to 50 nM in assay [2] and 250 to 1250 nM with CCNE1-normal SKOV3 cells.
In the same order, the values of `C[C@@H]1Oc2cc(ccn2)Nc2cc(n[nH]2)[C@H]2CC[C@H](C2)OC(=O)N[C@H]2C[C@@H]1C2` [Compound 145, (1^1S,1^3R,7^1S,7^3R,6S,Z)-6-methyl-2^1H-5,10-dioxa-3,8-diaza-4(4,2)-pyridina-2(3,5)-pyrazola-1(1,3)-cyclopentana-7(1,3)-cyclobutanacyclodecaphan-9-one] are 50 to 250 nM, 50 to 250 nM and over 1250 nM.
Taken in the same sequence, the figures for `C[C@H]1Oc2cncc(c2)Nc2cc(n[nH]2)[C@H]2CC[C@H](C2)OC(=O)N[C@H]2C[C@@H]1C2` [Compound 147, (1^1S,1^3R,7^1S,7^3S,6R,Z)-6-methyl-2^1H-5,10-dioxa-3,8-diaza-4(3,5)-pyridina-2(3,5)-pyrazola-1(1,3)-cyclopentana-7(1,3)-cyclobutanacyclodecaphan-9-one] were 50 to 250 nM, 50 to 250 nM and over 1250 nM.
In the same order, the values of `C[C@H]1C/C=C\C(F)(F)c2cc(ccn2)Nc2cc(n[nH]2)[C@H]2CC[C@H](C2)OC(=O)N1` [Compound 167, (1^1S,1^3R,2^4Z,9S)-5,5-difluoro-9-methyl-2^1H-12-oxa-3,10-diaza-4(4,2)-pyridina-2(3,5)-pyrazola-1(1,3)-cyclopentanacyclododecaphan-6-en-11-one] are 2 to 10 nM, 10 to 50 nM and 250 to 1250 nM.
With `C[C@@H]1C/C=C\C(F)(F)c2cc(ccn2)Nc2cc(n[nH]2)[C@H]2CC[C@H](C2)OC(=O)N1` [Compound 168, (1^1S,1^3R,2^4Z,9R)-5,5-difluoro-9-methyl-2^1H-12-oxa-3,10-diaza-4(4,2)-pyridina-2(3,5)-pyrazola-1(1,3)-cyclopentanacyclododecaphan-6-en-11-one], the IC50 is 10 to 50 nM in assay [1], 50 to 250 nM in assay [2] and over 1250 nM in the assay with CCNE1-normal SKOV3 cells.
Taken in the same sequence, the figures for `O=C1NC2CC(COc3cncc(c3)Nc3cc(n[nH]3)[C@H]3CC[C@H](C3)O1)C2` [Compound 171, (1^1S,1^3R,7^1R,7^3S,Z)-2^1H-5,10-dioxa-3,8-diaza-4(3,5)-pyridina-2(3,5)-pyrazola-1(1,3)-cyclopentana-7(1,3)-cyclobutanacyclodecaphan-9-one] were at most 2 nM, 2 to 10 nM and 250 to 1250 nM.
Taken in the same sequence, the figures for `C[C@H]1CCCOc2cc(c(F)cn2)Nc2cc(n[nH]2)[C@H]2CC[C@H](C2)OC(=O)N1` [Compound 174, (1^1S,1^3R,9S,Z)-4^5-fluoro-9-methyl-2^1H-5,12-dioxa-3,10-diaza-4(4,2)-pyridina-2(3,5)-pyrazola-1(1,3)-cyclopentanacyclododecaphan-11-one] were 50 to 250 nM, 50 to 250 nM and over 1250 nM.
Taken in the same sequence, the figures for `C[C@H]1CCCOc2nccc(c2F)Nc2cc(n[nH]2)[C@H]2CC[C@H](C2)OC(=O)N1` [Compound 176, (1^1S,1^3R,9S,Z)-4^3-fluoro-9-methyl-2^1H-5,12-dioxa-3,10-diaza-4(4,2)-pyridina-2(3,5)-pyrazola-1(1,3)-cyclopentanacyclododecaphan-11-one] were 2 to 10 nM, 10 to 50 nM and 250 to 1250 nM.
